US8309608B2, “Use of eNOS transcription enhancers in the cell therapy of ischemic heart diseases” (Sanofi-Aventis Deutschland GmbH, priority 2003, dated 2012)
pEC50: −log10 of the molar value.

Assays:
[1] = tested on: eNOS promoter (eNOS transcription); experiment: luciferase assay for activation of eNOS transcription; type: cell-based; settings: human endothelial cell line with eNOS promoter-luciferase construct, 18 hours incubation; for TIR(max) value (maximum transcription induction ratio): ratio vs solvent alone; for pEC50: read-out: EC50 value of transcription induction ratio
Experimental: Activation of eNOS transcription was measured as described in detail in Li et al., Activation of protein kinase C alpha and/or epsilon enhances transcription of the human endothelial nitric oxide synthase gene, Mol. Pharmacol. 1998, 53:630-637. Briefly, a 3.5 kB long fragment 5′ of the starting codon of the eNOS gene was cloned, sequenced and cloned in firefly luciferase expression plasmids to monitor activation of the eNOS promoter by reporter gene activity. A human endothelial cell line stable transfected and expressing this promoter-reporter construct was used for compound testing. Cells were incubated for 18 hours with compounds. All compounds were dissolved before in sterile dimethylsulfoxide (DMSO). A final concentration of 0.5% DMSO in complete medium was allowed. Induction of reporter gene expression in these cells was measured using a standard luciferase assay system (Promega, Madison, Wis., USA; Cat. No E150) according to the manufacturer's instructions. Luciferase induction in cells incubated with compounds were compared to those incubated with solvent alone. The ratio of both activities (transcription induction ratio, TIR) was plotted as a function of compound concentration. Typically, TIR values started at low concentrations at a ratio of 1, indicating no compound effect, and extended up to a maximum TIR value TIR(max) which indicates the increase of the eNOS transcription. EC50 values of transcription induction ratios as a function of compound concentration were determined graphically.

[2] = tested on: bone marrow stem and progenitor cells; experiment: migratory capacity of bone marrow stem and progenitor cells in response to SDF-1 (modified Boyden chamber); type: cell-based, human; settings: 100 ng/ml SDF-1
Experimental: For incubation with the eNOS transcription enhancer 4-fluoro-N-(indan-2-yl)benzamide, 1 ml of a suspension of 1000000 stem and progenitor cells in 1 ml of X-Vivo 10 cell culture medium was mixed with 1 μl of a solution of 4-fluoro-N-(indan-2-yl)benzamide in dimethylsulfoxide (DMSO) which had been prepared by dissolution of 1.275 mg of 4-fluoro-N-(indan-2-yl)benzamide in 1 ml of DMSO. The concentration of 4-fluoro-N-(indan-2-yl)benzamide in the resulting mixture was 5 μM. For incubation with the eNOS transcription enhancer 4-fluoro-N-(indan-2-yl)benzamide and the eNOS inhibitor N^G-monomethyl-L-arginine (L-NMMA), in addition to 4-fluoro-N-(indan-2-yl)benzamide, L-NMMA (Sigma, St. Louis, Mo., USA) was added to the cell suspension to give a resulting mixture with a 4-fluoro-N-(indan-2-yl)benzamide concentration of 5 μM and an L-NMMA concentration of 1 mM. Incubation was carried for 18 hours at a temperature of 37° C. under an atmosphere of air containing 5% of carbon dioxide. The cells were isolated by centrifugation, washed two times with PBS and resuspended in X-Vivo 10.
For assessing the migratory capacity of bone marrow stem and progenitor cells, a total of 1×10^6 bone marrow stem and progenitor cells were resuspended in 250 μl of X-Vivo 10 and placed in the upper chamber of a modified Boyden chamber filled with matrigel (BioCoat invasion assay, 8 μm pore size, Becton Dickinson Labware, Two Oak Park, Bedford, Mass., USA). Then, the chamber was placed in a 24-well culture dish containing 500 μl endothelial basic medium (EBM) supplemented with either phosphate buffered saline (PBS), 50 ng/ml VEGF, or 100 ng/ml SDF-1. After 24 hours incubation at 37° C., transmigrated cells were counted.

[3] = tested on: athymic NMRI nude mice, hind limb ischemia; experiment: in vivo hind limb ischemia model in mice (laser Doppler blood flow after injection of pretreated cells); settings: 5×10^5 cells/mouse i.v., measured after two weeks
Experimental: For incubation with the eNOS transcription enhancer 4-fluoro-N-(indan-2-yl)benzamide, 1 ml of a suspension of 1000000 stem and progenitor cells in 1 ml of X-Vivo 10 cell culture medium was mixed with 1 μl of a solution of 4-fluoro-N-(indan-2-yl)benzamide in dimethylsulfoxide (DMSO) which had been prepared by dissolution of 1.275 mg of 4-fluoro-N-(indan-2-yl)benzamide in 1 ml of DMSO. The concentration of 4-fluoro-N-(indan-2-yl)benzamide in the resulting mixture was 5 μM. […]
The neovascularization capacity of bone marrow stem and progenitor cells was investigated in a murine model of hind limb ischemia by use of 8 to 10 week old athymic NMRI nude mice (The Jackson Laboratory, Bar Harbor, Me., USA) weighing 18 to 22 g. […] After two weeks the limb perfusion was determined. Specifically, the ischemic (right) limb/normal (left) limb blood flow ratio was measured using a laser Doppler blood flow meter (Laser Doppler Perfusion Imager System, MoorLDI-Mark 2, Moor Instruments, Wilmington, Del., USA). […] After twice recording laser Doppler color images, the average perfusions of the ischemic and non-ischemic limb were calculated on the basis of colored histogram pixels. To minimize variables including ambient light and temperature, calculated perfusion was expressed as the ratio of ischemic to non-ischemic hind limb perfusion. […]

Row | melting point [°C] | Compound | TIR(max) value (maximum transcription induction ratio) [1] | pEC50 [1] | migratory response to SDF-1 ([2]; cells from the healthy controls, 18 hours of treatment with 5 μM compound) | migratory response to SDF-1 ([2]; cells from the healthy controls, 18 hours of treatment with 5 μM compound, listed as 4-fluoro-(N-indan-2-yl)benzamide) | migratory response to SDF-1 ([2]; cells from the patients, 18 hours of treatment with 5 μM compound and 1 mM L-NMMA) | migratory response to SDF-1 ([2]; cells from the patients, 18 hours of treatment with 5 μM compound) | laser Doppler-derived relative blood flow (ratio ischemic limb/normal limb) ([3]; cells from the patients treated for 18 hours with 5 μM compound and 1 mM L-NMMA) [%] | laser Doppler-derived relative blood flow (ratio ischemic limb/normal limb) ([3]; cells from the patients treated for 18 hours with 5 μM compound) [%]
1 | 167 | O=C(NC1Cc2ccccc2C1)c1ccc(F)cc1 [4-fluoro-N-(indan-2-yl)benzamide] | 4.10 | 6.10 | 111.2±38.5 ×1000 migrated cells | 74.3±21.5 ×1000 migrated cells | 23.9±7.4 ×1000 migrated cells | 74.0±20.7 ×1000 migrated cells | 39.7 ± 10.3 | 59.1 ± 11.6
2 | 147.5 | O=C(NC1Cc2ccccc2C1)c1ccc2c(c1)OC(F)(F)O2 [2,2-difluorobenzo[1,3]dioxol-5-carboxylic acid indan-2-ylamide] | 2.7 | 6.85 | – | – | – | – | – | –
